What was measured:
MCF10A = test: MTT cell growth inhibition: MCF10A normal breast; type: cell-based; conditions: Homo sapiens, MCF-10A, read-out: GI50 = Concentration (µM) that inhibits cell growth by 50%
A431 = test: MTT cell growth inhibition: A431; type: cell-based; conditions: A431 skin carcinoma; for GI50 / inhibition at 25 µM: Homo sapiens; for GI50: A-431, read-out: GI50 = Concentration (µM) that inhibits cell growth by 50%, dose response; for inhibition at 25 µM: A-431, read-out: Percentage (%) Cell Growth Inhibition in response to 25 µM of Drug; for inhibition at 25 µM / Percentage (%) Cell Growth Inhibition in response to 25 µM of Drug: 72 h, MTT
Procedure: (§1) All test agents were prepared as stock solutions (20 mM) in dimethyl sulfoxide (DMSO) and stored at −20 °C. Cell lines used in the study included HT29 (colorectal carcinoma); U87, SJ-G2, (glioblastoma); MCF-7, (breast carcinoma); A2780 (ovarian carcinoma); H460 (lung carcinoma); A431 (skin carcinoma); Du145 (prostate carcinoma); BE2-C (neuroblastoma); MiaPaCa-2 (pancreatic carcinoma); and SMA560 (spontaneous murine astrocytoma), together with the one non-tumour-derived normal breast cell line (MCF10A). All cell lines were incubated in a humidified atmosphere 5% CO2 at 37 °C. The cancer cell lines were maintained in Dulbecco’s modified Eagle’s medium (DMEM; Sigma, Australia) supplemented with foetal bovine serum (10%), sodium pyruvate (10 mM), penicillin (100 IUmL^−1), streptomycin (100 µg mL^−1) and L-glutamine (2 mM).
(§2) Growth inhibition was determined by plating cells in duplicate in medium (100 µL) at a density of 2500–4000 cells per well in 96-well plates. On day 0 (24 h after plating), when the cells were in logarithmic growth, medium (100 µL) with or without the test agent was added to each well. After 72 h drug exposure, growth inhibitory effects were evaluated using the MTT (3-(4,5-dimethyltiazol-2-yl)-2,5-diphenyltetrazolium bromide) assay and absorbance read at 540 nm. The percentage growth inhibition was calculated at a fixed concentration of 25 µM, based on the difference between the optical density values on day 0 and those at the end of drug exposure. Each data point is the mean ± the standard error of the mean (SEM) calculated from three replicates which were performed on separate occasions and separate cell line passages.

Du145 = test: MTT cell growth inhibition: Du145; type: cell-based; conditions: Homo sapiens, DU-145, read-out: GI50 = Concentration (µM) that inhibits cell growth by 50%; Du145 prostate carcinoma; dose response
[1] = target: T1, coffee beans α-galactosidase (Coffea arabica, UniProt Q42656); test: Glycosidase inhibition, laboratory 1: coffee beans α-galactosidase; type: biochemical; conditions: methanol
T1 construct: purchased Sigma-Aldrich Co
T1 sequence (Q42656 16-378): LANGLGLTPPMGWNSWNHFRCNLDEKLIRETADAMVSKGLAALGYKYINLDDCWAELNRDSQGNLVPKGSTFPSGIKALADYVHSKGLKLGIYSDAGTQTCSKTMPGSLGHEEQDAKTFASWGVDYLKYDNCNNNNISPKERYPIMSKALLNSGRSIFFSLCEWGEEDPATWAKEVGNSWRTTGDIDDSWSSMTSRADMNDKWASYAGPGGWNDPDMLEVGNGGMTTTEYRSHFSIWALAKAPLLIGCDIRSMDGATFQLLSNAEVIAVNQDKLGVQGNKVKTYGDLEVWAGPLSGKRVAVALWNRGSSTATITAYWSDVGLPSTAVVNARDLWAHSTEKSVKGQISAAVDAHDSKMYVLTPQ
Text: (§3) The enzymes α-glucosidase (from yeast), β-glucosidases (from almond and bovine liver), α-galactosidase (from coffee beans), β-galactosidase (from bovine liver), α-mannosidase (from Jack bean), β-mannosidase (from snail), α-L-rhamnosidase (from Penicillium decumbens), α-L-fucosidase (from bovine kidney), trehalase (from porcine kidney), β-glucuronidases (from E. coli and bovine liver), amyloglucosidase (from A. niger), para-nitrophenyl glycosides, and various disaccharides were purchased from Sigma-Aldrich Co (St Louis, MO, USA).
(§4) Brush border membranes were prepared from the rat small intestine according to the method of Kessler et al. and were assayed at pH 6.8 for rat intestinal maltase using maltose. For rat intestinal maltase, porcine kidney trehalase, and A. niger amyloglucosidase activities, the reaction mixture contained 25 mM maltose and the appropriate amount of enzyme, and the incubations were performed for 10–30 min at 37 °C. The reaction was stopped by heating at 100 °C for 3 min. After centrifugation (600× g; 10 min), the resulting reaction mixture was added to the Glucose CII-test Wako (Wako Pure Chemical Ind., Osaka, Japan). The absorbance at 505 nm was measured to determine the amount of the released D-glucose. Other glycosidase activities were determined using an appropriate para-nitrophenyl glycoside as substrate at the optimum pH of each enzyme. The reaction mixture contained 2 mM of the substrate and the appropriate amount of enzyme. The reaction was stopped by addition of 400 mM Na2CO3. The released para-nitrophenol was measured spectrometrically at 400 nm. All reactions run in methanol.

MCF-7 = test: MTT cell growth inhibition: MCF-7; type: cell-based; conditions: MCF-7 breast carcinoma; for GI50 / inhibition at 25 µM: Homo sapiens; for GI50: MCF7, read-out: GI50 = Concentration (µM) that inhibits cell growth by 50%, dose response; for inhibition at 25 µM: MCF7, read-out: Percentage (%) Cell Growth Inhibition in response to 25 µM of Drug; for inhibition at 25 µM / Percentage (%) Cell Growth Inhibition in response to 25 µM of Drug: 72 h, MTT
Procedure: as §1, §2

BE2-C = test: MTT cell growth inhibition: BE2-C; type: cell-based; conditions: Homo sapiens, BE(2)-C, read-out: GI50 = Concentration (µM) that inhibits cell growth by 50%; BE2-C neuroblastoma; dose response
almond β-glucosidase = test: Glycosidase inhibition, laboratory 2: almond β-glucosidase; type: biochemical; conditions: water
Procedure: All enzymes and para-nitrophenyl substrates were purchased from Sigma. Enzymes were assayed at 27 °C in 0.1 M citric acid/0.2 M disodium hydrogen phosphate buffers at the optimum pH for the enzyme. The incubation mixture consisted of 10 μL enzyme solution, 10 μL of 1 mg/mL aqueous solution of extract and 50 μL of the appropriate 5 mM para-nitrophenyl substrate made up in buffer at the optimum pH for the enzyme. The reactions were stopped by addition of 70 μL 0.4 M glycine (pH 10.4) during the exponential phase of the reaction, which had been determined at the beginning using uninhibited assays in which water replaced inhibitor. Final absorbances were read at 405 nm using a Versamax microplate reader (Molecular Devices). Assays were carried out in triplicate, and the values given are means of the three replicates per assay. All reactions run in water.

SJ-G2 = test: MTT cell growth inhibition: SJ-G2; type: cell-based; conditions: read-out: GI50 = Concentration (µM) that inhibits cell growth by 50%; SJ-G2 glioblastoma; dose response
MIA-Pa-Ca2 = test: MTT cell growth inhibition: MIA-Pa-Ca2; type: cell-based; conditions: 72 h; for inhibition at 25 µM: Homo sapiens, MIA PaCa-2, MIA-Pa-Ca2 pancreatic carcinoma, read-out: Percentage (%) Cell Growth Inhibition in response to 25 µM of Drug; for Percentage (%) Cell Growth Inhibition in response to 25 µM of Drug: MIA-Pa-Ca2 pancreatic carcinoma
Procedure: as §1, §2

[2] = test system: panel of 10 cancer cell lines and a normal cell line (MCF10A); test: Cancer screening: whole cell line panel; type: cell-based; conditions: for GI50: Homo sapiens, read-out: GI50 values across all cancer cell lines and the normal cell line
[3] = target: T2, bovine liver β-glucosidase (Bos taurus, UniProt F1MNT6); test: Glycosidase inhibition, laboratory 1: bovine liver β-glucosidase; type: biochemical; conditions: methanol
T2 sequence (F1MNT6 1-469): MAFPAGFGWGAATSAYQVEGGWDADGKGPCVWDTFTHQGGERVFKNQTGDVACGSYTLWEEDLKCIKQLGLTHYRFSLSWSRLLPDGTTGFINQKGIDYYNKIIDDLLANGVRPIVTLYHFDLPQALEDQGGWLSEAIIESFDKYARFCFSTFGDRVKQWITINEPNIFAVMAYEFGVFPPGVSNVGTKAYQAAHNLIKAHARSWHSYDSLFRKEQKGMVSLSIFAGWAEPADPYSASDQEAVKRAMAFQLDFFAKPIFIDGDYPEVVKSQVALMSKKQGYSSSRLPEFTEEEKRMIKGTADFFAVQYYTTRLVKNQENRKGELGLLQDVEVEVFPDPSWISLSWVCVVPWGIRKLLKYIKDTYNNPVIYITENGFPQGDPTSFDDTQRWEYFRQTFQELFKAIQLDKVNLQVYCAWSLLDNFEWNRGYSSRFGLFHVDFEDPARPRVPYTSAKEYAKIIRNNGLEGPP
Text: as §3, §4

Row | Compound | GI50 (MCF10A) [µM] | GI50 (A431) [µM] | inhibition at 25 µM (A431) [%] | GI50 (Du145) [µM] | GI50 (MCF-7) [µM] | inhibition at 25 µM (MCF-7) [%] | GI50 (BE2-C) [µM] | % inhibition at ~400 μM (almond β-glucosidase) [%] | GI50 (SJ-G2) [µM] | inhibition at 25 µM (MIA-Pa-Ca2) [%] | GI50 [2] [µM] | inhibition at 100 µM ([1]; 100 μM) [%] | further results
1 | CC1(C)OB(c2ccccc2NC(=O)c2cc(Cl)c(Cl)c(Cl)c2Cl)OC1(C)C [ortho 5, 2,3,4,5-Tetrachloro-N-(2-(4,4,5,5-tetramethyl-1,3,2-dioxaborolan-2-yl)phenyl)benzamide] | 27 ± 2.8 | 11 ± 1.8 | 100 ± 2 | 16 ± 1.9 | 12 ± 1.2 | > 100 | 16 ± 0.58 | 21 | 16 ± 0.91 | 100 ± 3 | 11 to 27 |  | inhibition at 10 µM [1]: 0%; inhibition at 10 µM [3]: 21.2%
2 | CC1(C)OB(c2cccc(NC(=O)c3cc(Cl)c(Cl)c(Cl)c3Cl)c2)OC1(C)C [meta 5, 2,3,4,5-tetrachloro-N-(3-(4,4,5,5-tetramethyl-1,3,2-dioxaborolan-2-yl)phenyl)benzamide] |  |  | 9 ± 9 |  |  | 16 ± 4 |  | 18.7 |  | 8 ± 5 |  | 30.2 | 
3 | CC1(C)OB(c2ccc(NC(=O)c3cc(Cl)c(Cl)c(Cl)c3Cl)cc2)OC1(C)C [para 5, 2,3,4,5-tetrachloro-N-(4-(4,4,5,5-tetramethyl-1,3,2-dioxaborolan-2-yl)phenyl)benzamide] |  |  | 64 ± 4 |  |  | 42 ± 5 |  | 11.3 |  | 52 ± 1 |  | 35.8 | 
4 | N[C@@H](Cc1ccc(B(O)O)cc1)C(=O)O [BPA, 4-borono-L-phenylalanine, reference compound] |  |  | 4 ± 6 |  |  | < 0 |  |  |  | 3 ± 3 |  |  | % inhibition at ~400 μM (almond β-glucosidase; 400 µM): 3.9%
5 | CC1(C)OB(c2ccc(CN3C(=O)c4c(Cl)c(Cl)c(Cl)c(Cl)c4C3=O)cc2)OC1(C)C [para 3, 4,5,6,7-Tetrachloro-2-(4-(4,4,5,5-tetramethyl-1,3,2-dioxaborolan-2-yl)benzyl)isoindoline-1,3-dione] | 12 ± 0.58 | 18 ± 2.3 | 85 ± 8 | 5.5 ± 0.23 | 3 ± 1.3 | > 100 | 8.1 ± 1.7 | 15.4 | 6.6 ± 2.4 | 98 ± 3 | 3 to 18 | 0.2 | inhibition at 100 µM ([3]; 100 μM): 4%
6 | CC1(C)OB(c2ccccc2CNC(=O)c2cc(Cl)c(Cl)c(Cl)c2Cl)OC1(C)C [ortho 8, 2,3,4,5-tetrachloro-N-(2-(4,4,5,5-tetramethyl-1,3,2-dioxaborolan-2-yl)benzyl)benzamide] |  |  | < 0 |  |  | < 0 |  | 83.4 |  | 6 ± 10 |  | 114 | Percent cell growth inhibition across the cell line panel ([2]; 25 μM, range or words over cell lines): almost complete abrogation of cell growth inhibition
7 | Borocaptate sodium [BSH, reference compound] |  |  |  |  |  |  |  | 47.3 |  |  |  |  | Percentage (%) Cell Growth Inhibition in response to 25 µM of Drug (A431): <0%; inhibition % at 1000 μM ([1]; 1000 μM): ^aNI ^b (12.3%); Percentage (%) Cell Growth Inhibition in response to 25 µM of Drug (MCF-7): 15 ± 3%; Percentage (%) Cell Growth Inhibition in response to 25 µM of Drug (MIA-Pa-Ca2): 2 ± 6%; inhibition % at 1000 μM ([3]; 1000 μM): ^aNI ^b (15%)
8 | CC1(C)OB(c2cccc(CN3C(=O)c4c(Cl)c(Cl)c(Cl)c(Cl)c4C3=O)c2)OC1(C)C [meta 3, 4,5,6,7-Tetrachloro-2-(3-(4,4,5,5-tetramethyl-1,3,2-dioxaborolan-2-yl)benzyl)isoindoline-1,3-dione] | 18 ± 1 | 28 ± 0.85 | 48 ± 3 | 30 ± 0.41 | 23 ± 3.7 | 67 ± 7 | 29 ± 0.58 | 19.3 | 35 ± 1.7 | 29 ± 2 | 18 to 38 |  | inhibition at 10 µM [1]: 3.5%; inhibition at 10 µM [3]: 18.8%
9 | N[C@@H](Cc1ccc(B(O)O)cc1)C(=O)O [^10B-BPA, reference compound] |  |  |  |  |  |  |  |  |  |  |  |  | Percentage (%) Cell Growth Inhibition in response to 25 µM of Drug (A431): 4 ± 4%; inhibition % at 100 μM ([1]; 100 μM): ^cNI ^d (1.2%); Percentage (%) Cell Growth Inhibition in response to 25 µM of Drug (MCF-7): 1 ± 3%; % inhibition at ~400 μM (almond β-glucosidase; 400 µM): 3%; Percentage (%) Cell Growth Inhibition in response to 25 µM of Drug (MIA-Pa-Ca2): 11 ± 3%; inhibition % at 100 μM ([3]; 100 μM): ^cNI ^d (14.2%)
